Measured values from ChEMBL document CHEMBL1275520, “Metronidazole lacks antibacterial activity in guinea pigs infected with Mycobacterium tuberculosis” (Antimicrob Agents Chemother, 2008).
Activity calls are given as the source filed them. No cut-off for these calls is given here.

Experiments:
[1] = test system: Mycobacterium tuberculosis; assay: Antibacterial activity against Mycobacterium tuberculosis infected in Hartley guinea pig lung assessed as reduction in bacterial load at 30 mg/kg; format: functional, organism-based; set-up: dose 30 mg/kg
[2] = test system: Mycobacterium tuberculosis; assay: Antibacterial activity against Mycobacterium tuberculosis infected in Hartley guinea pig spleen assessed as reduction in bacterial load at 30 mg/kg; format: functional, organism-based; set-up: dose 30 mg/kg
[3] = test system: Mycobacterium tuberculosis; assay: Antibacterial activity against Mycobacterium tuberculosis infected in Hartley guinea pig lung assessed as reduction in bacteria induced progression of inflammation at 30 mg/kg after 4 weeks by histological analysis relative to control; format: functional, organism-based; set-up: dose 30 mg/kg
[4] = test system: Mycobacterium tuberculosis; assay: Antibacterial activity against Mycobacterium tuberculosis infected in Hartley guinea pig lung assessed as reduction in development of new secondary lesions at 30 mg/kg after 4 weeks by histological analysis relative to control; format: functional, organism-based; set-up: dose 30 mg/kg
[5] = test system: Mycobacterium tuberculosis; assay: Antibacterial activity against Mycobacterium tuberculosis infected in Hartley guinea pig lung assessed as reduction in bacterial load at 100 mg/kg; format: functional, organism-based; set-up: dose 100 mg/kg
[6] = test system: Mycobacterium tuberculosis; assay: Antibacterial activity against Mycobacterium tuberculosis infected in Hartley guinea pig spleen assessed as reduction in bacterial load at 100 mg/kg; format: functional, organism-based; set-up: dose 100 mg/kg
[7] = test system: Mycobacterium tuberculosis; assay: Antibacterial activity against Mycobacterium tuberculosis infected in Hartley guinea pig lung assessed as reduction in bacteria induced progression of inflammation at 100 mg/kg after 4 weeks by histological analysis relative to control; format: functional, organism-based; set-up: dose 100 mg/kg
[8] = test system: Mycobacterium tuberculosis; assay: Antibacterial activity against Mycobacterium tuberculosis infected in Hartley guinea pig lung assessed as reduction in development of new secondary lesions at 100 mg/kg after 4 weeks by histological analysis relative to control; format: functional, organism-based; set-up: dose 100 mg/kg
[9] = Toxicity in Hartley guinea pig lung assessed as formation of TB lesions by histological analysis; set-up: species or system Cavia porcellus; conditions: in vivo

Row | Compound | Activity [1] | Activity [2] | Activity [3] | Activity [4] | Activity [5] | Activity [6] | Activity [7] | Activity [8] | Activity [9]
1 | NNC(=O)c1ccncc1 | Active | Active | Active | Active | – | – | – | – | –
2 | Cc1ncc([N+](=O)[O-])n1CCO [METRONIDAZOLE] | – | – | – | – | inactive | inactive | inactive | inactive | Toxic
